Reference: patent US11154529B2, “Phosphaplatin liquid formulations” (Phosplatin Therapeutics Inc., priority 2016, dated 2021)
Several values for one entry are separate records, joined by “and”; a condition that tells them apart may be missing. Equal entries are not always repeated.

Experiment: Ready-to-use formulation stability at 25° C./60% RH, 5 mg/mL (R,R)-pyrodach-2 in 10 mM Potassium Phosphate Buffer at pH 7.4, 10 mL vials
Type: physicochemical
Protocol: A scalable and commercially viable process for the manufacture of a ready-to-use formulation of (R,R)-pyrodach-2 in 10 mM buffer adjusted to a pH of 7.0-7.5 comprises the steps of: a) preparing a 10 mM aqueous solution of buffer; b) adding sufficient hydroxide base to effect neutralization of the added (R,R)-pyrodach-2 to reach a pH of about 7; c) adding (R,R)-pyrodach-2 and allowing it to dissolve; d) if necessary adding additional hydroxide to adjust the pH into a range of about 7.0-7.5; and e) filtering the solution under sterile conditions, filling the solution into glass vials, and covering it with a stopper and/or a cap. Stability data on two large batches of 5 mg/mL (R,R)-pyrodach-2 in 10 mM potassium phosphate buffer were generated. One such batch at pH=7.2 was evaluated at both 25° C./60% RH and refrigerated (2-8° C.) conditions, with data summarized in Table 4 and Table 5, respectively. […] Similar observations have been made for the ready-to-use liquid formulation at pH7.4, as illustrated in Table 6 and Table 7.
• Transfer 4564.6 mg±0.5 mg of potassium phosphate dibasic, trihydrate to a 2-L volumetric flask. • Fill flask to approximately 75% volume with water, swirl as needed to dissolve all solids. • Volumetrically transfer 32.0 mL of 1N KOH to flask. • Dilute flask to volume with water and mix well. • Record pH of final solution. This is the diluent. • Transfer 7653.1 mg±0.5 mg of (R,R)-pyrodach-2 to a compounding vessel. • Transfer 1500 mL of the diluent to the vessel and stir to dissolve solids. • Record pH of final solution. • Pass entire solution through a 0.22 μm sterile filter membrane into a sterile collection vessel. • Calculate (R,R)-pyrodach-2 solution concentration
To a […] glass beaker equipped with mechanical mixer was add 24645.5 g of sterile water for injection. With agitation 47.03 gm of dibasic potassium phosphate USP was added and the solids allowed to dissolve. To the stirred solution was added 253.8 gm of 1.00 N potassium hydroxide. Sterile water for injection USP (900.0 gm) was used as a rinse to facilitate both additions. With vigorous agitation, (R,R)-pyrodach-2 (201.87 gm) was slowly added and agitation continued until all of the solids dissolved. Sterile water for injection USP (900.0 gm) was used as a rinse to facilitate the addition. The pH was determined to be 6.7. A total of 85 mL of 1.00 N potassium hydroxide was added in 5.0 mL aliquots to adjust the pH to 7.3. The solution was sterile filtered through 0.22μ Millipore Millipack filter and aseptically filled, 10 ml top a vial in 10 mL in 10 cc Wheaton clear molded vails, stoppered with a 20 mm stopper and crimp seal capped.

O=P1(O)OP(=O)(O)[O][Pt]2([NH][C@@H]3CCCC[C@H]3[NH]2)[O]1 (stereo partly drawn) [(R,R)-pyrodach-2, (R,R)-trans-1,2-cyclohexanediamine-(dihydrogenpyrophosphato)platinum(II)]
(DACH) Pt-diaquo (~RRT 0.3) (1 Month): 0.16%
(DACH) Pt-monoaquo (~RRT 0.7) (1 Month): 1.12%
Assay (Potency) (1 Month): 98.4%
PT-112 Dimer (~RRT 4.0) (1 Month): 0.35%
RRT 0.50 (1 Month): 0.07%
RRT 0.56 (1 Month): 0.15%
RRT 0.68 (1 Month): 0.21%
RRT 0.86 (1 Month): 0.06%
RRT 3.1-3.2 (1 Month): 0.56%
Total Related Substances (1 Month): 3%
pH (1 Month): 7.4
(DACH) Pt-diaquo (~RRT 0.3) (3 Month): 0.15%
(DACH) Pt-monoaquo (~RRT 0.7) (3 Month): 0.92%
Assay (Potency) (3 Month): 99.2%
PT-112 Dimer (~RRT 4.0) (3 Month): 0.33%
RRT 0.50 (3 Month): 0.11%
RRT 0.56 (3 Month): 0.20%
RRT 0.68 (3 Month): 0.11%
RRT 0.86 (3 Month): 0.05%
RRT 3.1-3.2 (3 Month): 0.77%
RRT 3.58 (3 Month): 0.14%
Total Related Substances (3 Month): 3%
pH (3 Month): 7.4
(DACH) Pt-diaquo (~RRT 0.3) (6 Month): 0.19%
(DACH) Pt-monoaquo (~RRT 0.7) (6 Month): 0.30%
Assay (Potency) (6 Month): 96.7%
PT-112 Dimer (~RRT 4.0) (6 Month): 0.36%
RRT 0.42 (6 Month): 0.06%
RRT 0.46 (6 Month): 0.09%
RRT 0.50 (6 Month): 0.31%
RRT 0.56 (6 Month): 0.09%
RRT 0.68 (6 Month): 0.16%
RRT 0.86 (6 Month): 0.07%
RRT 3.1-3.2 (6 Month): 0.86%
RRT 3.58 (6 Month): 0.37%
RRT 4.95 (6 Month): 0.06%
Total Related Substances (6 Month): 3%
pH (6 Month): 7.4
Particulate Matter (Light Obscuration) (6 Month, first value): 87 particles particles per container
Particulate Matter (Light Obscuration) (6 Month, second value): 3 particles particles per container
(DACH) Pt-diaquo (~RRT 0.3) (9 Month): 0.14%
(DACH) Pt-monoaquo (~RRT 0.7) (9 Month): 0.79%
Assay (Potency) (9 Month): 98.2%
PT-112 Dimer (~RRT 4.0) (9 Month): 0.34%
RRT 0.42 (9 Month): 0.08%
RRT 0.46 (9 Month): 0.08%
RRT 0.50 (9 Month): 0.39%
RRT 0.56 (9 Month): 0.11%
RRT 0.68 (9 Month): 0.11%
RRT 0.86 (9 Month): 0.06%
RRT 3.1-3.2 (9 Month): 0.84%
RRT 3.41 (9 Month): 0.08%
RRT 3.58 (9 Month): 0.65%
RRT 4.95 (9 Month): 0.21%
Total Related Substances (9 Month): 4%
pH (9 Month): 7.4
(DACH) Pt-diaquo (~RRT 0.3) (12 Month): 0.11%
(DACH) Pt-monoaquo (~RRT 0.7) (12 Month): 0.92%
Assay (Potency) (12 Month): 98.0%
PT-112 Dimer (~RRT 4.0) (12 Month): 0.30%
RRT 0.42 (12 Month): 0.10%
RRT 0.46 (12 Month): 0.07%
RRT 0.50 (12 Month): 0.38%
RRT 0.56 (12 Month): 0.19%
RRT 0.68 (12 Month): 0.11%
RRT 0.86 (12 Month): 0.05%
RRT 3.1-3.2 (12 Month): 0.82%
RRT 3.58 (12 Month): 0.70%
RRT 4.95 (12 Month): 0.34%
Total Related Substances (12 Month): 4%
pH (12 Month): 7.5
Particulate Matter (Light Obscuration) (12 Month, first value): 118 particles per container
Particulate Matter (Light Obscuration) (12 Month, second value): 7 particles particles per container
(DACH) Pt-diaquo (~RRT 0.3) (15 Month): 0.13%
(DACH) Pt-monoaquo (~RRT 0.7) (15 Month): 0.92%
Assay (Potency) (15 Month): 96.8%
PT-112 Dimer (~RRT 4.0) (15 Month): 0.28%
RRT 0.42 (15 Month): 0.12%
RRT 0.46 (15 Month): 0.08%
RRT 0.50 (15 Month): 0.44%
RRT 0.56 (15 Month): 0.20%
RRT 0.68 (15 Month): 0.11%
RRT 0.86 (15 Month): 0.05%
RRT 3.1-3.2 (15 Month): 0.78%
RRT 3.58 (15 Month): 0.78%
RRT 4.95 (15 Month): 0.51%
Total Related Substances (15 Month): 4%
pH (15 Month): 7.5
(DACH) Pt-diaquo (~RRT 0.3) (18 Month): 0.12%
(DACH) Pt-monoaquo (~RRT 0.7) (18 Month): 0.78%
Assay (Potency) (18 Month): 96.9%
PT-112 Dimer (~RRT 4.0) (18 Month): 0.29%
RRT 0.42 (18 Month): 0.15%
RRT 0.46 (18 Month): 0.13%
RRT 0.50 (18 Month): 0.59%
RRT 0.56 (18 Month): 0.09%
RRT 0.68 (18 Month): 0.08%
RRT 0.86 (18 Month): 0.05%
RRT 3.1-3.2 (18 Month): 0.73%
RRT 3.44 (18 Month): 0.12%
RRT 3.58 (18 Month): 1.06%
RRT 4.95 (18 Month): 0.69%
Total Related Substances (18 Month): 5%
pH (18 Month): 7.5
(DACH) Pt-diaquo (~RRT 0.3) (21 Month): 0.11%
(DACH) Pt-monoaquo (~RRT 0.7) (21 Month): 1.13%
Assay (Potency) (21 Month): 96.3%
PT-112 Dimer (~RRT 4.0) (21 Month): 0.28%
RRT 0.42 (21 Month): 0.16%
RRT 0.46 (21 Month): 0.12%
RRT 0.50 (21 Month): 0.60%
RRT 0.56 (21 Month): 0.17%
RRT 0.68 (21 Month): 0.12%
RRT 3.1-3.2 (21 Month): 0.75%
RRT 3.41 (21 Month): 0.07%
RRT 3.44 (21 Month): 0.05%
RRT 3.58 (21 Month): 1.12%
RRT 4.95 (21 Month): 0.89%
Total Related Substances (21 Month): 6%
pH (21 Month): 7.4
(DACH) Pt-diaquo (~RRT 0.3) (24 Month): 0.11%
(DACH) Pt-monoaquo (~RRT 0.7) (24 Month): 0.85%
Assay (Potency) (24 Month): 94.6%
PT-112 Dimer (~RRT 4.0) (24 Month): 0.28%
RRT 0.42 (24 Month): 0.18%
RRT 0.46 (24 Month): 0.12%
RRT 0.50 (24 Month): 0.70%
RRT 0.56 (24 Month): 0.17%
RRT 0.68 (24 Month): 0.13%
RRT 0.86 (24 Month): 0.05%
RRT 3.1-3.2 (24 Month): 0.72%
RRT 3.29 (24 Month): 0.06%
RRT 3.44 (24 Month): 0.05%
RRT 3.58 (24 Month): 1.07%
RRT 4.95 (24 Month): 1.12%
Total Related Substances (24 Month): 6%
pH (24 Month): 7.4
(DACH) Pt-diaquo (~RRT 0.3) (Initial): 0.16%
(DACH) Pt-monoaquo (~RRT 0.7) (Initial): 0.84%
Assay (Potency) (Initial): 98.1%
PT-112 Dimer (~RRT 4.0) (Initial): 0.34%
RRT 0.50 (Initial): 0.06%
RRT 0.56 (Initial): 0.08%
RRT 0.68 (Initial): 0.09%
RRT 3.1-3.2 (Initial): 0.11%
Total Related Substances (Initial): 2%
pH (Initial): 7.4
Particulate Matter (Light Obscuration) (Initial, first value): 30 particles particles per container and 30 particles per particles per container
Particulate Matter (Light Obscuration) (Initial, second value): 11 particles particles per container and 11 particles per particles per container
